Laboratory results reported in the NIST ThermoML archive (doi:10.1016/j.fluid.2011.04.022).

Settings: Liquid, Vibrating tube method

FC(F)(F)CC(F)(F)F [1,1,1,3,3,3-hexafluoropropane]
mass density [kg/m3]
Settings | 293.38 K | 303.23 K | 313.1 K | 322.94 K | 333.06 K | 343.19 K | 353.23 K | 363.22 K | 373.17 K
1000 kPa | 1380.41 | 1346.41 | 1310.15 | 1272.73 | 1230.59 | – | – | – | –
3000 kPa | 1389.7 | 1356.85 | 1322.54 | 1287.52 | 1248.74 | 1207.31 | 1161.43 | – | –
5000 kPa | 1398.14 | 1366.62 | 1333.75 | 1300.71 | 1264.58 | 1226.45 | 1185.57 | 1140.64 | 1091.26
10000 kPa | 1417.22 | 1388.23 | 1358.32 | 1328.74 | 1297.09 | 1264.58 | 1230.77 | 1195.26 | 1158.13
15000 kPa | 1434.22 | 1407.04 | 1379.33 | 1352.16 | 1323.56 | 1294.29 | 1264.63 | 1233.73 | 1202.21
20000 kPa | 1449.45 | 1423.79 | 1397.77 | 1372.4 | 1345.92 | 1319.04 | 1292.08 | 1264.17 | 1236.05
25000 kPa | 1463.39 | 1438.88 | 1414.16 | 1390.33 | 1365.48 | 1340.43 | 1315.3 | 1289.66 | 1263.9
30000 kPa | 1476.18 | 1452.75 | 1429.13 | 1406.5 | 1382.82 | 1359.27 | 1335.89 | 1311.7 | 1287.72
35000 kPa | 1488.18 | 1465.54 | 1442.8 | 1421.01 | 1398.61 | 1376.24 | 1354.11 | 1331.22 | 1308.62
40000 kPa | 1499.36 | 1477.52 | 1455.53 | 1434.57 | 1413.18 | 1391.75 | 1370.58 | 1348.77 | 1327.34
50000 kPa | 1519.84 | 1499.35 | 1478.52 | 1459.05 | 1439.06 | 1419.24 | 1399.7 | 1379.54 | 1359.88
60000 kPa | 1538.35 | 1518.78 | 1499.21 | 1480.75 | 1461.86 | 1443.29 | 1424.96 | 1406.01 | 1387.66
70000 kPa | 1555.2 | 1536.58 | 1517.63 | 1500.21 | 1482.19 | 1464.6 | 1447.34 | 1429.34 | 1412.03
